This assay concerns Influenza A virus. In kind it is functional, organism-based, Influenza A virus (A/Parma/24/2009(H1N1)). As to conditions: MDCK, 48 h.

A word on the EC50: it is the concentration giving half of the maximal effect. Read a low EC50 as an effect from little substance.

For `NC(=O)c1ncn([C@@H]2O[C@H](CO)[C@@H](O)[C@H]2O)n1` [RIBAVIRIN], a half-maximal response (EC50) required 17 µM. This counts as double-digit micromolar.

Values taken from ChEMBL document CHEMBL3108691, “Structural investigation of cycloheptathiophene-3-carboxamide derivatives targeting influenza virus polymerase assembly” (J Med Chem, 2013).
